Experimental findings from PubChem BioAssay (NCI) are described below.

What all share (test): NCI tumour cell line growth inhibition, 48 h
Test [1] has as its system LXFL 529 NSCLC.
The subject of test [2] is DLD-1 colon.
Test [3] concerns M19-MEL melanoma.
The test system of test [4] is KM20L2 colon.
Test [5] relates to XF 498 CNS.
The test system of test [6] is DMS 114 small cell lung.
Test [7] relates to HOP-18 NSCLC.
Test [8] has as its system P388/ADR leukemia.
Test [9] concerns SN12K1 renal.
For test [10], the system named is P388 leukemia.

Structures are written as SMILES. “And” between values parts separate entries of the source, which are not always exact repeats. Equal values may be shown once.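 In this assay, cells in 96-well plates receive the compound at five concentrations for 48 hours. Endpoints are linearly interpolated between the surrounding concentrations. GI50: concentration for 50% inhibition of growth. Definition used: TGI = concentration required for complete inhibition of growth.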

Regarding `Nc1nc(SCCC/C=C/I)nc2c1ncn2C1OC(COP(=O)(O)O)C(O)C1O` (stereo not drawn), the TGI in [1], in test [2], in [3], in test [4], in test [5] and in test [6] was above 100 µM throughout.

As for `O=C1C=C[C@@H](COC2OC(CO)C(O)C(O)C2O)O1` (stereo partly drawn), the TGI in test [7] is above 100 µM; in test [2], 17.9 µM and 19.1 µM; in test [8], 1.82 µM; in test [3], 16.3 µM and 26.8 µM; in [4], 38 µM; in test [5] it was 31.6 µM and 34.5 µM. The TGI in test [9] was 28.9 µM and 29.2 µM; in [6] it was 14.2 µM and 28.5 µM. Moreover, the GI50 in test [3] is 3.8 µM; in test [4] it was 14.4 µM; in [5] it was 14.3 µM; in test [6], 3.73 µM.

Turning to `N#C/C(=C1/Sc2c(nc[nH]c2=O)N1c1ccccc1)c1nc2ccccc2[nH]1`, the TGI in test [1], in [2], in test [3], in [4], in test [5] and in test [6] was above 100 µM throughout.

As for `Cc1ccc(NC(=O)CC2Sc3ccccc3NC2=O)cc1C` (stereo not drawn), the TGI in test [1], in [7], in test [2], in [3], in [4] and in test [5] was above 100 µM each time. Moreover, in [6], the TGI is above 100 µM.

In the case of `Nc1c(S(=O)(=O)O)cc2cc(S(=O)(=O)O)ccc2c1N=Nc1ccc(-c2ccc(N=Nc3c(N)c(S(=O)(=O)O)cc4cc(S(=O)(=O)O)ccc34)c(S(=O)(=O)O)c2)cc1`, the TGI in test [7], in test [10], in [2], in [8], in [3] and in test [4] was above 100 µM throughout. Further, the TGI in test [5], in test [9] and in test [6] was above 100 µM throughout.

Turning to `COc1ccc(/C=c2\sc3n(c2=O)CCN=3)cc1`, the TGI in test [1], in test [7], in [2], in test [3] and in test [4] was above 100 µM each time.

`COC(=O)[C@@H](O)[C@](O)(CCC(C)C)C(=O)O[C@@H]1C(OC)=C[C@]23CCCN2CCc2cc4c(cc2[C@H]13)OCO4`: the TGI in test [7] is 7.81 µM; in test [10], 1.16 µM; in test [2] it was above 19.7 µM; in test [8], 11 µM; in test [3], 4.16 µM; in [4] it was 9.49 µM. For the same molecule, the TGI stood at 5.89 µM in test [9] and 2.2 µM in test [6].
